Experiment: solubility experiment in water at room temperature
Format: physicochemical
Description: A solubility experiment was carried out in which commercially available naringin was dissolved in water at room temperature. The naringin was dissolved in an amount of 0.1 g/l corresponding to around 0.01 weight-%. A pulverous test sample of a composition obtained from Citrus Aurantium by the method according to the invention and comprising about 20 weight-% naringin was also dissolved in water at room temperature. The composition was dissolved in an amount of […], corresponding to a […] solution of naringin weight-%. Accordingly the solubility of naringin is 300 times higher in water when obtained by the method according to the invention and being in the composition obtained from Citrus Aurantium by said method, than commercially available naringin.

C[C@@H]1O[C@@H](O[C@H]2[C@H](Oc3cc(O)c4c(c3)O[C@H](c3ccc(O)cc3)CC4=O)O[C@H](CO)[C@@H](O)[C@@H]2O)[C@H](O)[C@H](O)[C@H]1O [naringin, naringenin-7β-neohesperidoside; 5,7,4′-trihydroxyflavanone-7β-neohesperidoside]
amount dissolved in water: 0.1 g/L
amount dissolved in water, as weight-% (commercially available naringin): around 0.01 weight-%

Source: patent US6409996B1, “Composition comprising one or more flavonoids, method of obtaining such composition and use thereof as UV-absorbing agent” (Flavone Sunproducts A/S, priority 1997, dated 2002)
